Reference: PubChem BioAssay (NCI)
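Compound exposure: 48 hours, 5 concentrations, 96-well plates. GI50 = concentration required for 50% inhibition of growth. TGI denotes the concentration required for complete inhibition of growth.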

Columns and labels:
Assay in all cases: DTP human tumour cell line panel, 48 h
[1] = tested on: A549 NSCLC
[2] = tested on: UACC-62 melanoma
[3] = tested on: CCRF-CEM leukemia
[4] = tested on: HS 578T breast
[5] = tested on: BT-549 breast
[6] = tested on: SNB-75 CNS
[7] = tested on: SNB-19 CNS
[8] = tested on: HCT-116 colon
[9] = tested on: T-47D breast
[10] = tested on: KM12 colon
[11] = tested on: NCI-H23 lung
[12] = tested on: SW-620 colon
[13] = tested on: HCT-15 colon
[14] = tested on: OVCAR-8 ovarian
[15] = tested on: RPMI-8226 leukemia
[16] = tested on: SK-MEL-5 melanoma
[17] = tested on: U251 CNS
[18] = tested on: OVCAR-5 ovarian
[19] = tested on: EKVX NSCLC
[20] = tested on: UO-31 renal
[21] = tested on: MALME-3M melanoma
[22] = tested on: NCI-H522 lung
[23] = tested on: HOP-92 NSCLC
[24] = tested on: A498 renal
[25] = tested on: MDA-MB-231 breast
[26] = tested on: SK-MEL-28 melanoma
[27] = tested on: ACHN renal
[28] = tested on: NCI-H226 lung
[29] = tested on: MOLT-4 leukemia
[30] = tested on: HT29 colon
[31] = tested on: NCI/ADR-RES ovarian
[32] = tested on: 786-0 renal
[33] = tested on: MDA-MB-435
[34] = tested on: K-562 leukemia
[35] = tested on: IGROV1 ovarian
[36] = tested on: COLO 205 colon
[37] = tested on: HOP-62 NSCLC
[38] = tested on: SK-OV-3 ovarian
[39] = tested on: TK-10 renal
[40] = tested on: NCI-H460 lung
[41] = tested on: HL-60(TB) leukemia
[42] = tested on: MCF7 breast
[43] = tested on: SF-268 CNS
[44] = tested on: OVCAR-4 ovarian
[45] = tested on: LOX IMVI melanoma
[46] = tested on: OVCAR-3 ovarian
[47] = tested on: SF-539 CNS
[48] = tested on: DU-145 prostate
[49] = tested on: SF-295 CNS
[50] = tested on: HCC-2998 colon
[51] = tested on: M14 melanoma
[52] = tested on: CAKI-1 renal
[53] = tested on: PC-3 prostate
[54] = tested on: SN12C renal
[55] = tested on: UACC-257 melanoma
[56] = tested on: RXF 393 renal

Q: For CN1C(=O)C23CC4(C56CC78SSC(CO)(C(=O)N7C5Nc5ccccc56)N(C)C8=O)c5ccccc5NC4N2C(=O)C1(CO)SS3 (configuration not stated), which GI50 [1] is on record?
A: 0.048 µM

Q: And the TGI [1]?
A: 0.283 µM

Q: And the GI50 [2]?
A: 0.0622 µM

Q: What about the TGI [2] of the same molecule?
A: 0.153 µM

Q: And the GI50 [3]?
A: 0.0219 µM

Q: What about the TGI [3] of the same molecule?
A: 3.04 µM

Q: And the GI50 [4]?
A: 0.0529 µM

Q: What about the TGI [4] of the same molecule?
A: 0.191 µM

Q: What about the GI50 [5] of the same molecule?
A: 0.106 µM

Q: What about the TGI [5] of the same molecule?
A: 0.347 µM

Q: What about the GI50 [6] of the same molecule?
A: 0.0993 µM

Q: And the TGI [6]?
A: 0.289 µM

Q: What about the GI50 [7] of the same molecule?
A: 0.192 µM

Q: What about the TGI [7] of the same molecule?
A: 0.643 µM

Q: What about the GI50 [8] of the same molecule?
A: 0.0329 µM

Q: What about the TGI [8] of the same molecule?
A: 0.313 µM

Q: And the GI50 [9]?
A: 0.0213 µM

Q: What about the TGI [9] of the same molecule?
A: 0.135 µM

Q: What about the GI50 [10] of the same molecule?
A: 0.0544 µM

Q: What about the TGI [10] of the same molecule?
A: 0.22 µM

Q: And the GI50 [11]?
A: < 0.0315 µM

Q: And the TGI [11]?
A: 0.0764 µM

Q: And the GI50 [12]?
A: 0.0372 µM

Q: And the TGI [12]?
A: 0.167 µM

Q: What about the GI50 [13] of the same molecule?
A: 0.0353 µM

Q: And the TGI [13]?
A: 0.411 µM

Q: And the GI50 [14]?
A: 0.023 µM

Q: What about the TGI [14] of the same molecule?
A: 0.185 µM

Q: And the GI50 [15]?
A: 0.0563 µM

Q: And the TGI [15]?
A: 3.16 µM

Q: What about the GI50 [16] of the same molecule?
A: 0.0393 µM

Q: And the TGI [16]?
A: 0.112 µM

Q: What about the GI50 [17] of the same molecule?
A: 0.0464 µM

Q: What about the TGI [17] of the same molecule?
A: 0.193 µM

Q: And the GI50 [18]?
A: 0.0813 µM

Q: And the TGI [18]?
A: 0.294 µM

Q: What about the GI50 [19] of the same molecule?
A: 0.0892 µM

Q: What about the TGI [19] of the same molecule?
A: 0.526 µM

Q: And the GI50 [20]?
A: 0.111 µM

Q: And the TGI [20]?
A: 0.342 µM

Q: What about the GI50 [21] of the same molecule?
A: 0.0177 µM

Q: And the TGI [21]?
A: 0.0745 µM

Q: What about the GI50 [22] of the same molecule?
A: 0.115 µM

Q: What about the TGI [22] of the same molecule?
A: 0.329 µM

Q: And the GI50 [23]?
A: 0.103 µM

Q: And the TGI [23]?
A: 0.461 µM

Q: And the GI50 [24]?
A: 0.0748 µM

Q: And the TGI [24]?
A: 0.155 µM

Q: What about the GI50 [25] of the same molecule?
A: 0.13 µM

Q: And the TGI [25]?
A: 0.653 µM

Q: And the GI50 [26]?
A: 0.0235 µM

Q: And the TGI [26]?
A: 0.0695 µM

Q: And the GI50 [27]?
A: 0.0715 µM

Q: And the TGI [27]?
A: 0.443 µM

Q: What about the GI50 [28] of the same molecule?
A: 0.13 µM

Q: And the TGI [28]?
A: 0.359 µM

Q: What about the GI50 [29] of the same molecule?
A: 0.0343 µM

Q: What about the TGI [29] of the same molecule?
A: 3.5 µM

Q: And the GI50 [30]?
A: 0.0176 µM

Q: What about the TGI [30] of the same molecule?
A: 0.162 µM

Q: And the GI50 [31]?
A: 0.0482 µM

Q: What about the TGI [31] of the same molecule?
A: 0.189 µM

Q: And the GI50 [32]?
A: 0.0786 µM

Q: What about the TGI [32] of the same molecule?
A: 0.172 µM

Q: What about the GI50 [33] of the same molecule?
A: 0.0685 µM

Q: What about the TGI [33] of the same molecule?
A: 0.146 µM

Q: What about the GI50 [34] of the same molecule?
A: 0.524 µM

Q: And the TGI [34]?
A: 3.64 µM

Q: And the GI50 [35]?
A: 0.0987 µM

Q: What about the TGI [35] of the same molecule?
A: 0.279 µM

Q: What about the GI50 [36] of the same molecule?
A: 0.0195 µM

Q: And the TGI [36]?
A: 0.076 µM

Q: What about the GI50 [37] of the same molecule?
A: 0.124 µM

Q: What about the TGI [37] of the same molecule?
A: 0.368 µM

Q: And the GI50 [38]?
A: 0.103 µM

Q: And the TGI [38]?
A: 0.291 µM

Q: And the GI50 [39]?
A: 0.119 µM

Q: And the TGI [39]?
A: 0.359 µM

Q: And the GI50 [40]?
A: 0.0523 µM

Q: And the TGI [40]?
A: 0.191 µM

Q: And the GI50 [41]?
A: 0.0853 µM

Q: What about the TGI [41] of the same molecule?
A: 50 µM

Q: What about the GI50 [42] of the same molecule?
A: 0.0145 µM

Q: What about the TGI [42] of the same molecule?
A: 0.122 µM

Q: And the GI50 [43]?
A: 0.0807 µM

Q: What about the TGI [43] of the same molecule?
A: 0.351 µM

Q: And the GI50 [44]?
A: 0.0576 µM

Q: And the TGI [44]?
A: 0.237 µM

Q: What about the GI50 [45] of the same molecule?
A: 0.0521 µM

Q: And the TGI [45]?
A: 0.243 µM

Q: What about the GI50 [46] of the same molecule?
A: 0.0507 µM

Q: And the TGI [46]?
A: 0.218 µM

Q: What about the GI50 [47] of the same molecule?
A: 0.0291 µM

Q: And the TGI [47]?
A: 0.0649 µM

Q: What about the GI50 [48] of the same molecule?
A: 0.0296 µM

Q: And the TGI [48]?
A: 0.195 µM

Q: And the GI50 [49]?
A: 0.0497 µM

Q: And the TGI [49]?
A: 0.135 µM

Q: And the GI50 [50]?
A: 0.046 µM

Q: What about the TGI [50] of the same molecule?
A: 0.132 µM

Q: What about the GI50 [51] of the same molecule?
A: 0.0717 µM

Q: And the TGI [51]?
A: 0.205 µM

Q: What about the GI50 [52] of the same molecule?
A: 0.0561 µM

Q: What about the TGI [52] of the same molecule?
A: 0.29 µM

Q: And the GI50 [53]?
A: 0.0388 µM

Q: And the TGI [53]?
A: 0.537 µM

Q: What about the GI50 [54] of the same molecule?
A: 0.124 µM

Q: What about the TGI [54] of the same molecule?
A: 0.673 µM

Q: What about the GI50 [55] of the same molecule?
A: 0.0372 µM

Q: And the TGI [55]?
A: 0.113 µM

Q: What about the GI50 [56] of the same molecule?
A: 0.0129 µM

Q: And the TGI [56]?
A: 0.042 µM
